Assay results reported in US11292766B2, “Substituted piperidine compound and use thereof” (Takeda Pharmaceutical Company Limited, priority 2016, dated 2022).

Target: human orexin type 2 receptor (hOX2R) (Homo sapiens (Human), UniProt O43614)
Assay: Measurement of orexin type 2 receptor agonist activity (Experimental Example 2-1, FLIPR intracellular Ca2+)
Type: cell-based
Text: To obtain a cell clone stably expressing human orexin type 2 receptor, human orexin type 2 receptor cDNA was inserted into pcDNA3.1(+) plasmid vector (Invitrogen), and a plasmid DNA for expression of human orexin type 2 receptor (pcDNA3.1(+)/hOX2R) was cloned. The plasmid DNA was introduced into CHO-dhfr cell by an electroporation method, and human orexin type 2 receptor expressing clone cells were obtained by limiting dilution method by using G418 drug resistance as a selection marker.
Chinese hamster ovary (CHO) dhfr-cells forcibly expressing human orexin type 2 receptor (hOX2R) were seeded in each well of Black clear bottom plate (384 wells) (Becton, Dickinson and Company) by 10,000 cells, and cultured for 16 hr in an MEM-alpha (Nikken-Bio Co., Ltd.) medium containing 100 U/ml penicillin, 100 μg/ml streptomycin, […] G418 (all above Invitrogen), and 10% fetal calf serum (Thermo), under the conditions of 37° C., 5% CO2. […] A test compound was dissolved in dimethyl sulfoxide to 10 mM, and then diluted with assay buffer 2 (20 mM HEPES, Hanks' balanced salt solution (Invitrogen), 0.1% bovine serum albumin). For the reaction, a test compound solution (10 μL) was added using Fluorescent Imaging Plate Reader TETRA (FLIPR TETRA; manufactured by Molecular Devices), a fluorescence value (excitation wavelength 488 nm, measurement wavelength 570 nm) of each well was measured every one second for 1 min, and the agonist activity was determined using the area of the fluorescence value as an indicator of intracellular Ca^2+ concentration.

[1] = CHO dhfr- cells expressing hOX2R, FLIPR TETRA Ca2+ fluorescence (Exp. Ex. 2-1)

Sequence of human orexin type 2 receptor (hOX2R) (O43614 whole entry): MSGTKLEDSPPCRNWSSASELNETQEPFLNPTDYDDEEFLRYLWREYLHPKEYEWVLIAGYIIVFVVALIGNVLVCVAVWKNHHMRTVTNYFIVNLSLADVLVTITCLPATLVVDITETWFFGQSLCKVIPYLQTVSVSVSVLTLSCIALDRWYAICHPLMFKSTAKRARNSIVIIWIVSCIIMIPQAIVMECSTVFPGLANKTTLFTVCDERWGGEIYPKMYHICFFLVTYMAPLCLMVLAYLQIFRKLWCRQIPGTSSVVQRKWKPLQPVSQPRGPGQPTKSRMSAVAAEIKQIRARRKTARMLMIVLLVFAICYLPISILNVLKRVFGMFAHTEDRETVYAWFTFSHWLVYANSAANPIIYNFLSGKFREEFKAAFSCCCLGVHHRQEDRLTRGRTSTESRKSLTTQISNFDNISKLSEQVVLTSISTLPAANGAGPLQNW

## COc1ccccc1[C@H]1CC[C@@H](OC[C@H]2[C@@H](NS(C)(=O)=O)CCCN2C(=O)C2CC2)CC1 [Example 28, N-((2R,3S)-1-(cyclopropylcarbonyl)-2-(((cis-4-(2-methoxyphenyl)cyclohexyl)oxy)methyl)piperidin-3-yl)methanesulfonamide]
Value at 30 uM concentration, orexin B as full agonist = 100%
  Emax at 30 µM: 98%

## CCOC(=O)N1CCC[C@H](NS(C)(=O)=O)[C@@H]1CO[C@H]1CC[C@@H](c2ccccc2)CC1 [Example 303, ethyl (2R,3S)-3-((methylsulfonyl)amino)-2-(((cis-4-phenylcyclohexyl)oxy)methyl)-piperidine-1-carboxylate]
[1]
  EC50: 0.015 µM

## COc1cccc([C@H]2CC[C@@H](OC[C@H]3[C@@H](NS(C)(=O)=O)CCCN3C(=O)C3CC3)CC2)c1 [Example 304, N-((2R,3S)-1-(cyclopropylcarbonyl)-2-(((cis-4-(3-methoxyphenyl)cyclohexyl)oxy)-methyl)piperidin-3-yl) methanesulfonamide]
[1]
  EC50: 0.023 µM

## cis-N-ethyl-3- ((methylsulfonyl)amino)-2- (((cis-2-phenyl-1,3-dioxan- 5-yl)oxy)methyl) piperidine-1-carboxamide [Example 140]
[1]
  EC50: 0.39 µM
  Emax (%): 92%
